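1) Cells in 96-well plates. 2) Compound, 48 h, 5 concentrations. 3) Linear interpolation between surrounding doses. 4) Unreached endpoint = highest concentration. The concentration for 50% growth inhibition is given as GI50. TGI: total growth inhibition.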
Tests used:
Experiment in all cases: NCI tumour cell line growth inhibition, 48 h; in the data active means GI50 below about 0.43 µM; inactive means the rest
[1] = tested on: DMS 273 small cell lung
[2] = tested on: A498 renal
[3] = tested on: HCC-2998 colon
[4] = tested on: MOLT-4 leukemia
[5] = tested on: ACHN renal
[6] = tested on: SR leukemia
[7] = tested on: SK-OV-3 ovarian
[8] = tested on: CAKI-1 renal
[9] = tested on: XF 498 CNS
[10] = tested on: NCI/ADR-RES ovarian
[11] = tested on: P388 leukemia
[12] = tested on: SNB-78 CNS

O=C1CSC(C(N=Nc2ccc(Cl)cc2)c2nc3ccccc3[nH]2)=N1 (stereo not given)
45.9 µM: TGI [9]
> 100 µM: TGI [1] | TGI [2] | TGI [3] | TGI [5] | TGI [6] | TGI [7] | TGI [8]
39.8 µM: TGI [4]

CCc1c(C)c2ccc(OCC(=O)N=Nc3c(O)[nH]c4ccccc34)c(C)c2oc1=O
> 33.3 µM: TGI [2] | TGI [4] | TGI [5] | TGI [6] | TGI [10] | TGI [8]
inactive: GI50 [2] > 33.3 µM | GI50 [4] 1.15 µM | GI50 [5] > 33.3 µM | GI50 [6] 1.2 µM | GI50 [10] > 33.3 µM | GI50 [8] > 33.3 µM

Cc1c(N=NN(C)C)cc[n+]([O-])c1C
> 100 µM: TGI [11] | TGI [1] | TGI [2] | TGI [3] | TGI [4] | TGI [7] | TGI [12] | TGI [10] | TGI [8] | TGI [9]

CC(C)[C@](O)(C(=O)OCC1=CCN2CC[C@@H](O)[C@@H]12)[C@H](C)O
> 375 µM: TGI [11] | TGI [1] | TGI [2] | TGI [3] | TGI [4] | TGI [7] | TGI [12] | TGI [10] | TGI [8] | TGI [9]

COC(=O)C1C(O)C(C)C(O)OC1C(C)C(O)C(C)/C=C\C=C(/C)C(=O)Nc1c(C)c(OC(C)=O)c2c(c1O)C(=O)C(C)=C1OCOC(/C(C)=C/C(C)=O)=C12 (stereo not given)
24.9 µM: TGI [12]
25 µM: TGI [1]
33.3 µM: TGI [4]
30.6 µM: TGI [2]
40.2 µM: TGI [7]
12.4 µM: TGI [11]
34 µM: TGI [8]
26.3 µM: TGI [3]
30.5 µM: TGI [10]
24.6 µM: TGI [9]

Cn1c(=O)c2nc(NCCO)cnc2n(C)c1=O
> 100 µM: TGI [1] | TGI [2] | TGI [3] | TGI [4] | TGI [5] | TGI [6] | TGI [7] | TGI [12] | TGI [8] | TGI [9]

O=C(c1ccccc1)c1nn(-c2ccccc2)c2nc3nc(-c4ccccc4)cc(=O)n3nc12
40.4 µM: TGI [6]
inactive: GI50 [2] 44.8 µM | GI50 [3] 32.6 µM | GI50 [4] 21.8 µM | GI50 [5] 37.1 µM | GI50 [6] 17.6 µM | GI50 [7] 62.2 µM | GI50 [10] 26.2 µM | GI50 [8] 68 µM
60.2 µM: TGI [3]
49.3 µM: TGI [4]
74.5 µM: TGI [10]
> 100 µM: TGI [2] | TGI [5] | TGI [7] | TGI [8]

Cc1cc2c(C(C)C)c(O)c(O)c(C=Nc3ccccc3)c2c(O)c1-c1c(C)cc2c(C(C)C)c(O)c(O)c(C=Nc3ccccc3)c2c1O
> 100 µM: TGI [1] | TGI [3] | TGI [4] | TGI [5] | TGI [6] | TGI [7] | TGI [8] | TGI [9]

Reference: PubChem BioAssay (NCI)
